Publication PMC7501296, “Rapid and direct control of target protein levels with VHL-recruiting dTAG molecules” (Nature Communications, 2020)
Where “and” joins values, the source holds several entries; their conditions need not be identical. Equal entries are not always repeated.

Legend:
[1] = tested on: PATU-8902 FKBP12^F36V-KRAS^G12V; KRAS^-/- clone; experiment: Antiproliferation, PATU-8902 FKBP12F36V-KRASG12V; KRAS-/- clone, 2D-monolayer (CellTiter-Glo); format: cell-based
[2] = Pharmacokinetic evaluation in mice; format: in vivo, C57BL/6J male mice
Excerpt: For IP injections, dTAG-13 and dTAG^V-1 were formulated by dissolving into DMSO and then diluting with 20% solutol (Sigma): 0.9% sterile saline (Moltox) (w:v) with the final formulation containing 5% DMSO. […] Formulations were stable at room temperature for 7 days. For IV injections, dTAG-13 and dTAG^V-1 were formulated by dissolving into DMSO and then diluting with 5% solutol (Sigma): 0.9% sterile saline (Moltox) (w:v) with the final formulation containing 5% DMSO. All procedures for PK studies were compliant with ethical regulations for animal testing and research, and were approved by and performed in accordance with standards of the Institute Animal Care and Use Committee (IACUC) at Scripps Florida. Housing conditions for mice at Scripps Florida were as follows: lights on = 7 AM, lights off = 7 PM, average ambient temperature = 72 °F, and average humidity = 45%. PK was assessed in 8-week-old C57BL/6J male mice (Jackson Laboratory, #000664) with blood collected at 0.08, 0.25, 0.5, 1, 2, 4, 6, and 8 h (2 mg kg^−1 dTAG-13 intravenous (IV) tail vein, 10 mg kg^−1 dTAG-13 intraperitoneal (IP), and 2 mg kg^−1 dTAG^V-1 IV tail vein administrations) and 0.25, 0.5, 1, 2, 4, 6, 8, 24 and 48 h (2 mg kg^−1 dTAG^V-1 IP and 10 mg kg^−1 dTAG^V-1 IP administrations). Plasma was generated by centrifugation and plasma concentrations were determined by LC-MS/MS following the mass transition 49600à340 AMU. PK parameters were calculated using Phoenix WinNonlin to determine peak plasma concentration (Cmax), oral bioavailability (%F), exposure (AUC), half-life (t1/2), clearance (CL), and volume of distribution (Vd).

[3] = tested on: PATU-8902 LACZ-FKBP12^F36V clone; experiment: Antiproliferation, PATU-8902 LACZ-FKBP12F36V clone, 3D-spheroid (CellTiter-Glo); format: cell-based
Method in brief: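 Viability of cells grown as ultra-low adherent 3D-spheroids was determined with the CellTiter-Glo reagent (Promega). Luminescence was read on either an Envision 2104 plate reader (PerkinElmer) or a Fluostar Omega Reader (BMG Labtech). The resulting data were analyzed with GraphPad PRISM v8.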

[4] = tested on: PATU-8902 FKBP12^F36V-KRAS^G12V; KRAS^-/- clone; experiment: Antiproliferation, PATU-8902 FKBP12F36V-KRASG12V; KRAS-/- clone, 3D-spheroid (CellTiter-Glo); format: cell-based; settings: FKBP12F36V-KRASG12V, KRAS-/-, 3D-spheroid, replicate values
Method in brief: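 Viability of cells grown as ultra-low adherent 3D-spheroids was determined with CellTiter-Glo (Promega). Luminescence readings were taken on an Envision 2104 plate reader (PerkinElmer) and a Fluostar Omega Reader (BMG Labtech), and the resulting data were processed in GraphPad PRISM v8 to assess effects on cell proliferation.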

FKBP12^WT-Nluc = biological target: T1, FKBP12^WT-Nluc (Homo sapiens, UniProt P62942); experiment: FKBP12WT-Nluc dual luciferase assay (293FT); format: cell-based; settings: 293FT FKBP12WT-Nluc, 24 h
T1 construct: expressed in transfected cells; host or cells: 293FT
T1 sequence (P62942 2-108 limits assumed): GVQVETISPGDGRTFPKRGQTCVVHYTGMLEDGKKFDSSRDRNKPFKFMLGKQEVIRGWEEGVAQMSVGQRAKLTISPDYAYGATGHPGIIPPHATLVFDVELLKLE
Method in brief: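 293FT cells expressing FKBP12^WT-Nluc or FKBP12^F36V-Nluc with Fluc were treated with compound for 24 h at 37 °C. Fluc, then Nluc, luminescence was read with Dual-Glo reagents. Values are DMSO-normalised Nluc/Fluc ratios.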

[5] = log10[compound] (M) -5.69897, replicate values
[6] = log10[compound] (M) -6.19897, replicate values
[7] = log10[compound] (M) -6.69897, replicate values
[8] = log10[compound] (M) -7.19897, replicate values
[9] = log10[compound] (M) -7.69897, replicate values
[10] = log10[compound] (M) -8.19897, replicate values
[11] = log10[compound] (M) -8.69897, replicate values
[12] = log10[compound] (M) -9.19897, replicate values
[13] = log10[compound] (M) -9.69897, replicate values
[14] = log10[compound] (M) -10.199, replicate values
[15] = intraperitoneal administration at 10 mg kg^−1

Compound: CC[C@H](C(=O)N1CCCC[C@H]1C(=O)O[C@H](CCc1ccc(OC)c(OC)c1)c1ccccc1OCC(=O)NCCCCCCOc1cccc2c1C(=O)N(C1CCC(=O)NC1=O)C2=O)c1cc(OC)c(OC)c(OC)c1 (stereo partly shown) [dTAG-13]
- DMSO-normalized antiproliferation [1, 5]: 10.9257 and 6.898 and 8.446 and 8.371
- DMSO-normalized antiproliferation [1, 6]: 11.932 and 10.4461 and 13.2552 and 12.7525
- DMSO-normalized antiproliferation [1, 7]: 9.655 and 9.596 and 10.3089 and 13.0861
- DMSO-normalized antiproliferation [1, 8]: 15.4438 and 14.4907 and 17.4502 and 15.1305
- DMSO-normalized antiproliferation [1, 9]: 47.914 and 33.2029 and 20.7399 and 31.0479
- DMSO-normalized antiproliferation [1, 10]: 58.9433 and 77.5971 and 44.7261 and 57.0103
- DMSO-normalized antiproliferation [1, 11]: 103.967 and 74.9703 and 94.8172 and 78.6857
- DMSO-normalized antiproliferation [1, 12]: 94.4313 and 115.825 and 99.9239 and 85.5403
- DMSO-normalized antiproliferation [1, 13]: 101.606 and 85.9324 and 94.5986 and 110.248
- DMSO-normalized antiproliferation [1, 14]: 88.9654 and 100.345 and 66.0988 and 85.3394
- AUCinf ([2]; IP, 10 mg kg-1): 6140 ng·h/mL
- AUClast ([2]; IP, 10 mg kg-1): 5619 ng·h/mL
- CL ([2]; IP, 10 mg kg-1): 28 mL/min/kg
- Cmax ([2]; IP, 10 mg kg-1): 1263 ng/mL
- T1/2 ([2]; IP, 10 mg kg-1): 2.41 h
- Tmax ([2]; IP, 10 mg kg-1): 2.00 h
- AUCinf ([2]; IV, 2 mg kg-1): 1253 ng·h/mL
- AUClast ([2]; IV, 2 mg kg-1): 1242 ng·h/mL
- CL ([2]; IV, 2 mg kg-1): 32.5 mL/min/kg
- Cmax ([2]; IV, 2 mg kg-1): 2373 ng/mL
- T1/2 ([2]; IV, 2 mg kg-1): 1.46 h
- Tmax ([2]; IV, 2 mg kg-1): 0.08 h
- Vss ([2]; IV, 2 mg kg-1): 1.8 L/kg
- exposure (AUCinf) [2, 15]: 6140 ng·h/mL
- half-life (T1/2) [2, 15]: 2.41 h
- DMSO-normalized antiproliferation [3, 5]: 83.5347 and 77.755 and 106.784 and 100.802
- DMSO-normalized antiproliferation [3, 6]: 108.447 and 95.2018 and 93.9194 and 111.801
- DMSO-normalized antiproliferation [3, 7]: 105.932 and 113.702 and 105.116 and 107.515
- DMSO-normalized antiproliferation [3, 8]: 104.318 and 154.981 and 104.434 and 95.3632
- DMSO-normalized antiproliferation [3, 9]: 98.1432 and 118.54 and 142.668 and 106.77
- DMSO-normalized antiproliferation [3, 10]: 105.712 and 98.6185 and 105.909 and 92.2738
- DMSO-normalized antiproliferation [3, 11]: 108.958 and 119.361 and 97.2958 and 103.25
- DMSO-normalized antiproliferation [3, 12]: 89.1127 and 99.6498 and 108.86 and 111.989
- DMSO-normalized antiproliferation [3, 13]: 97.9056 and 108.178 and 110.59 and 112.891
- DMSO-normalized antiproliferation [3, 14]: 91.8389 and 92.6594 and 105.927 and 94.166
- DMSO-normalized antiproliferation ([4]; log10[compound] (M) -5.69897): 12.7187 and 7.467 and 16.3605 and 9.962
- DMSO-normalized antiproliferation ([4]; log10[compound] (M) -6.19897): 11.9335 and 12.0003 and 12.0114 and 13.9827
- DMSO-normalized antiproliferation ([4]; log10[compound] (M) -6.69897): 14.0106 and 15.4027 and 13.0027 and 15.9484
- DMSO-normalized antiproliferation ([4]; log10[compound] (M) -7.19897): 14.0384 and 16.4385 and 16.9619 and 11.7776
- DMSO-normalized antiproliferation ([4]; log10[compound] (M) -7.69897): 14.9517 and 15.5419 and 18.3931 and 15.5976
- DMSO-normalized antiproliferation ([4]; log10[compound] (M) -8.19897): 24.6577 and 23.0874 and 23.2266 and 22.4971
- DMSO-normalized antiproliferation ([4]; log10[compound] (M) -8.69897): 42.8837 and 45.8128 and 51.5651 and 55.5467
- DMSO-normalized antiproliferation ([4]; log10[compound] (M) -9.19897): 69.8747 and 70.4761 and 56.6493 and 74.3184
- DMSO-normalized antiproliferation ([4]; log10[compound] (M) -9.69897): 76.2117 and 76.4178 and 69.3902 and 68.6162
- DMSO-normalized antiproliferation ([4]; log10[compound] (M) -10.199): 73.2492 and 74.079 and 68.7888 and 65.637
- DMSO-normalized ratio of Nluc/Fluc signal (FKBP12^WT-Nluc; log10[compound] (M) -5.30103, single replicates): 68.0018 and 52.1082 and 49.2679 and 67.0893
- DMSO-normalized ratio of Nluc/Fluc signal (FKBP12^WT-Nluc; log10[compound] (M) -5.80103, single replicates): 39.4179 and 40.0508 and 57.6875 and 62.3631
- DMSO-normalized ratio of Nluc/Fluc signal (FKBP12^WT-Nluc; log10[compound] (M) -6.30103, single replicates): 61.6189 and 51.8679 and 71.8125 and 45.1167
- DMSO-normalized ratio of Nluc/Fluc signal (FKBP12^WT-Nluc; log10[compound] (M) -6.80103, single replicates): 68.675 and 79.0108 and 77.6288 and 57.0488
- DMSO-normalized ratio of Nluc/Fluc signal (FKBP12^WT-Nluc; log10[compound] (M) -7.30103, single replicates): 95.7266 and 46.8613 and 87.0104 and 66.427
- DMSO-normalized ratio of Nluc/Fluc signal (FKBP12^WT-Nluc; log10[compound] (M) -7.80103, single replicates): 86.0033 and 61.1842 and 69.3744 and 83.8873
- DMSO-normalized ratio of Nluc/Fluc signal (FKBP12^WT-Nluc; log10[compound] (M) -8.30103, single replicates): 94.8586 and 72.3429 and 122.034 and 94.0336
- DMSO-normalized ratio of Nluc/Fluc signal (FKBP12^WT-Nluc; log10[compound] (M) -8.80103, single replicates): 101.052 and 65.5195 and 71.6364 and 55.6566
- DMSO-normalized ratio of Nluc/Fluc signal (FKBP12^WT-Nluc; log10[compound] (M) -9.30103, single replicates): 113.35 and 121.354 and 97.4549 and 93.7336
- DMSO-normalized ratio of Nluc/Fluc signal (FKBP12^WT-Nluc; log10[compound] (M) -9.80103, single replicates): 115.063 and 75.6978 and 95.0976 and 66.8915
